These results are taken from US20070249590A1, “Substituted indolo[2,3-a]pyrrolo[3,4-c]carbazole compounds useful in treating kinase disorders” (priority 2005, published 2007).

SMILES strings stand for the structures.

In this test the target is T1, JAK3 (JH1 and JH2 domain) (Homo sapiens, UniProt P52333).
T1 sequence (P52333 521-1111 limits assumed): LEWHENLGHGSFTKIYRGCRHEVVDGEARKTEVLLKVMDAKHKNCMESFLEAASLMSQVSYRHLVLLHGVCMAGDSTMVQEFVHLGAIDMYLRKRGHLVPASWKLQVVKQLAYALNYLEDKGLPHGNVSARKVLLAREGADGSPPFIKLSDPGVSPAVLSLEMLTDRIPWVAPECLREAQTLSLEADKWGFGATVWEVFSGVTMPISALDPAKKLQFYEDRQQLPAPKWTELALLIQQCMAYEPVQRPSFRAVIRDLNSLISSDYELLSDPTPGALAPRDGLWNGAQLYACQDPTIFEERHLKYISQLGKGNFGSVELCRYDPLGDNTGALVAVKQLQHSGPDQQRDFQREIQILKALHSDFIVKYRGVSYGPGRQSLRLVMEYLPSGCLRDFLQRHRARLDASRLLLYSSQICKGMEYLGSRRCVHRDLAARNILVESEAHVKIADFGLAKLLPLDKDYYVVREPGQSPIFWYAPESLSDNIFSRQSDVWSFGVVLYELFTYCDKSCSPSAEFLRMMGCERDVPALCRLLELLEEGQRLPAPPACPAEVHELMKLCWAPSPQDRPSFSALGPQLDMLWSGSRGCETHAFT
The experiment in a line: JAK3 Kinase Assay (ELISA of peptide substrate phosphorylation). It counts as biochemical. The note with it: purified JAK3 enzyme, 10 μM ATP, biotinylated peptide substrate, 1 hour at room temperature. In outline:
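Sf21-baculovirus-expressed JAK3 (JH1+JH2), glutathione-bead purified, with biotinylated peptide substrate (in buffer containing 10 μM ATP) in HEPES pH 7.5/MgCl2/DTT, 1 h RT. Product was captured on Neutravidin, detected with HRP anti-phosphotyrosine (PY99)/TMB, OD 450/650 nm. Triplicate 16-point half-log series from 200 μM gave IC50; otherwise % inhibition at 1 μM.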
For `O=C1NCc2c1c1c3cc(Cn4ccnc4)ccc3n3c1c1c2c2ccccc2n1CC(O)C(O)C3` (centres unmarked) [Cpd 202, 3-(imidazol-1-ylmethyl)-12,13-(2,3-dihydroxy-butan-1,4-yl)-6,7,12,13-tetrahydro-5-oxo-5H-indolo[2,3-a]pyrrolo[3,4-c]carbazole], the IC50 came out at 103 nM.

With `CN1CCN(Cc2ccc3c(c2)c2c4c(c5c6ccccc6n6c5c2n3CC(O)C(O)C6)CNC4=O)CC1` (centres unmarked) [Cpd 193, 3-(4-methyl-piperazin-1-ylmethyl)-12,13-(2,3-dihydroxy-butan-1,4-yl)-6,7,12,13-tetrahydro-5-oxo-5H-indolo[2,3-a]pyrrolo[3,4-c]carbazole], the half-maximal inhibitory concentration (IC50) came to 135 nM. On to `O=C1NCc2c1c1c3ccccc3n3c1c1c2c2ccccc2n1CCC(OC(=O)N1CCN(c2ccc(O)cc2)CC1)CC3` (centres unmarked) [Cpd 181, 12,13-(3-{[4-(4-hydroxy-phenyl)piperazin-1-yl]carbonyloxy}-pentan-1,5-yl)-6,7,12,13-tetrahydro-5-oxo-5H-indolo[2,3-a]pyrrolo[3,4-c]carbazole], for which the IC50 is 7360 nM. Turning to `O=C(NCCCN1CCOCC1)OC1Cn2c3ccccc3c3c4c(c5c6ccccc6n(c5c32)CC1O)C(=O)NC4=O` (centres unmarked) [Cpd 88, 12,13-{2-[(3-morpholin-4-yl-prop-1-yl)carbamoyloxy]-3-hydroxy-butan-1,4-yl}-12,13-dihydro-5,7-dioxo-6H-indolo[2,3-a]pyrrolo[3,4-c]carbazole], the 50% inhibitory concentration (IC50) turned out to be 113 nM. Then `CN1CCN(CCCNC(=O)OC2CCn3c4ccccc4c4c5c(c6c7ccccc7n(c6c43)C2)C(=O)NC5=O)CC1` (centres unmarked) [Cpd 43, 12,13-(2-{[3-(4-methyl-piperazin-1-yl)prop-1-yl]carbamoyloxy}-butan-1,4-yl)-12,13-dihydro-5,7-dioxo-6H-indolo[2,3-a]pyrrolo[3,4-c]carbazole], with 112 nM; and `O=C1NCc2c1c1c3cc(/C=C/Cn4ccnc4)ccc3n3c1c1c2c2ccccc2n1CC(O)C(O)C3` (centres unmarked) [Cpd 201], with 24 nM; and `O=C1NCc2c1c1c3cc(CO)ccc3n3c1c1c2c2cc(CO)ccc2n1CC(CO)C3` (centres unmarked) [Cpd 215, 3,9-bis-(hydroxymethyl)-12,13-(2-hydroxymethyl-propan-1,3-yl)-6,7,12,13-tetrahydro-5-oxo-5H-indolo[2,3-a]pyrrolo[3,4-c]carbazole], with 8 nM. In the case of `CN(C)CCCN1CCN(C(=O)C2(O)Cn3c4ccccc4c4c5c(c6c7ccccc7n(c6c43)CC2O)C(=O)NC5=O)CC1` (centres unmarked) [Cpd 126, 12,13-(2-{[4-(3-dimethylamino-prop-1-yl)piperazin-1-yl]carbonyl}-2,3-dihydroxy-butan-1,4-yl)-12,13-dihydro-5,7-dioxo-6H-indolo[2,3-a]pyrrolo[3,4-c]carbazole] it was 55 nM; in that of `O=C1NC(=O)c2c1c1c3ccccc3n3c1c1c2c2ccccc2n1CC(OC(=O)N1CCN(CCN2CCOCC2)CC1)C(O)C3` (centres unmarked) [Cpd 94], 516 nM; in that of `CC(=O)c1ccc(N2CCN(C(=O)OC3CCn4c5ccccc5c5c6c(c7c8ccccc8n(c7c54)C3)C(=O)NC6=O)CC2)cc1` (centres unmarked) [Cpd 59, 12,13-(2-{[4-(4-methylcarbonyl-phenyl)piperazin-1-yl]carbonyloxy}-butan-1,4-yl)-12,13-dihydro-5,7-dioxo-6H-indolo[2,3-a]pyrrolo[3,4-c]carbazole], 547 nM.

Consider `O=C1NCc2c1c1c3ccccc3n3c1c1c2c2cc(CO)ccc2n1CC(CO)C3` (centres unmarked) [Cpd 212, 9-hydroxymethyl-12,13-(2-hydroxymethyl-propan-1,3-yl)-6,7,12,13-tetrahydro-5-oxo-5H-indolo[2,3-a]pyrrolo[3,4-c]carbazole], for which the IC50 is 3 nM. On to `O=C1NC(=O)c2c1c1c3ccccc3n3c1c1c2c2ccccc2n1CC(OC(=O)N1CCN(CCN2CCCC2=O)CC1)CC3` (centres unmarked) [Cpd 57, 12,13-[2-({4-[2-(2-oxo-pyrrolidin-1-yl)ethyl]piperazin-1-yl}carbonyloxy)-butan-1,4-yl]-12,13-dihydro-5,7-dioxo-6H-indolo[2,3-a]pyrrolo[3,4-c]carbazole], for which the IC50 came to 41 nM. In the case of `O=C1NCc2c1c1c3cc(Br)ccc3n3c1c1c2c2ccccc2n1CC(O)C(O)C3` (centres unmarked) [Cpd 188, 3-bromo-12,13-(2,3-dihydroxy-butan-1,4-yl)-6,7,12,13-tetrahydro-5-oxo-5H-indolo[2,3-a]pyrrolo[3,4-c]carbazole] it was 34 nM; in that of `O=C1NCc2c1c1c3cc(O)ccc3n3c1c1c2c2ccccc2n1CC(O)C(O)C3` (centres unmarked) [Cpd 189, 3-hydroxy-12,13-(2,3-dihydroxy-butan-1,4-yl)-6,7,12,13-tetrahydro-5-oxo-5H-indolo[2,3-a]pyrrolo[3,4-c]carbazole], 3 nM; in that of `CN1CCC(NCc2ccc3c(c2)c2c4c(c5c6ccccc6n6c5c2n3CC(O)C(O)C6)CNC4=O)CC1` (centres unmarked) [Cpd 195, 3-[(1-methyl-piperidin-4-yl)aminomethyl]-12,13-(2,3-dihydroxy-butan-1,4-yl)-6,7,12,13-tetrahydro-5-oxo-5H-indolo[2,3-a]pyrrolo[3,4-c]carbazole], 284 nM. In the case of `CN(C)CCCNC(=O)OC1CCn2c3ccccc3c3c4c(c5c6ccccc6n(c5c32)CC1)C(=O)NC4` (centres unmarked) [Cpd 186, 12,13-{3-[(3-dimethylamino-prop-1-yl)carbamoyloxy]-pentan-1,5-yl}-6,7,12,13-tetrahydro-5-oxo-5H-indolo[2,3-a]pyrrolo[3,4-c]carbazole] it was 178 nM; in that of `CN(C)CCCN1CCN(C(=O)OC2Cn3c4ccccc4c4c5c(c6c7ccccc7n(c6c43)CC2O)C(=O)NC5=O)CC1` (centres unmarked) [Cpd 97, 12,13-(2-{[4-(3-dimethylamino-prop-1-yl)piperazin-1-yl]carbonyloxy}-3-hydroxy-butan-1,4-yl)-12,13-dihydro-5,7-dioxo-6H-indolo[2,3-a]pyrrolo[3,4-c]carbazole], 175 nM; in that of `CN(C)c1ccc(CNC(=O)OC2Cn3c4ccccc4c4c5c(c6c7ccccc7n(c6c43)CC2O)C(=O)NC5=O)cc1` (centres unmarked) [Cpd 93, 12,13-{2-[(4-dimethylamino-benzyl)carbamoyloxy]-3-hydroxy-butan-1,4-yl}-12,13-dihydro-5,7-dioxo-6H-indolo[2,3-a]pyrrolo[3,4-c]carbazole], 65 nM. In the case of `COC(=O)C1(O)Cn2c3ccccc3c3c4c(c5c6ccccc6n(c5c32)CC1O)C(=O)NC4=O` (centres unmarked) [Cpd 12, 12,13-(2-methoxycarbonyl-2,3-dihydroxy-butan-1,4-yl)-12,13-dihydro-5,7-dioxo-6H-indolo[2,3-a]pyrrolo[3,4-c]carbazole], the IC50 was 1 nM. In the case of `CN1CCN(C(=O)C2(O)Cn3c4ccccc4c4c5c(c6c7ccccc7n(c6c43)CC2O)C(=O)NC5=O)CC1` (centres unmarked) [Cpd 125, 12,13-{2-[(4-methyl-piperazin-1-yl)carbonyl]-2,3-dihydroxy-butan-1,4-yl}-12,13-dihydro-5,7-dioxo-6H-indolo[2,3-a]pyrrolo[3,4-c]carbazole] it was 27 nM; in that of `O=C(NCCCn1ccnc1)OC1CCn2c3ccccc3c3c4c(c5c6ccccc6n(c5c32)C1)C(=O)NC4=O` (centres unmarked) [Cpd 36, 12,13-{2-[(3-imidazol-1-yl-prop-1-yl)carbamoyloxy]-butan-1,4-yl}-12,13-dihydro-5,7-dioxo-6H-indolo[2,3-a]pyrrolo[3,4-c]carbazole], 30 nM.

On to `COc1ccccc1CNC(=O)OC1Cn2c3ccccc3c3c4c(c5c6ccccc6n(c5c32)CC1O)C(=O)NC4=O` (centres unmarked) [Cpd 78, 12,13-{2-[(2-methoxy-benzyl)carbamoyloxy]-3-hydroxy-butan-1,4-yl}-12,13-dihydro-5,7-dioxo-6H-indolo[2,3-a]pyrrolo[3,4-c]carbazole], for which the 50% inhibitory concentration (IC50) is 179 nM.

Take `O=C(O)/C=C/c1ccc2c(c1)c1c3c(c4c5ccccc5n5c4c1n2CC(CO)C5)CNC3=O` (centres unmarked) [Cpd 218, 3-[(2E)-2-carboxy-ethenyl]-12,13-(2-hydroxymethyl-propan-1,3-yl)-6,7,12,13-tetrahydro-5-oxo-5H-indolo[2,3-a]pyrrolo[3,4-c]carbazole]: the IC50 turned out to be 686 nM. In the case of `O=C1NCc2c1c1c3ccccc3n3c1c1c2c2ccccc2n1CC(O)(COC(=O)N1CCC(CO)CC1)C3` (centres unmarked) [Cpd 143, 12,13-{2-hydroxy-2-[(4-hydroxymethyl-piperidin-1-yl)carbonyloxymethyl]-propan-1,3-yl}-6,7,12,13-tetrahydro-5-oxo-5H-indolo[2,3-a]pyrrolo[3,4-c]carbazole] it was roughly 200 nM; in that of `O=C1NC(=O)c2c1c1c3cc(-c4ccncc4)ccc3n3c1c1c2c2ccccc2n1CC(O)CC3` (centres unmarked) [Cpd 33, 3-pyridin-4-yl-12,13-(2-hydroxy-butan-1,4-yl)-12,13-dihydro-5,7-dioxo-6H-indolo[2,3-a]pyrrolo[3,4-c]carbazole], 40 nM; in that of `O=C1NCc2c1c1c3ccccc3n3c1c1c2c2ccccc2n1CC(=C(CO)CO)C3` [Cpd 24, 12,13-(2-{[1,1-bis-(dihydroxymethyl)]methylidene}-propan-1,3-yl)-6,7,12,13-tetrahydro-5-oxo-5H-indolo[2,3-a]pyrrolo[3,4-c]carbazole], 37 nM.
